Measurements published in patent publication US20120028917A1, “Use Of N-(4-((3-(2-Amino-4-Pyrimidinyl)-2-Pyridinyl)Oxy)Phenyl)-4-(4-Methyl-2-Thienyl)-1-Phthalazinamine In The Treatment Of Antimitotic Agent Resistant Cancer” (Amgen Inc., priority 2009, published 2012).
Like-named read-outs stand apart in the source and are kept apart here.

Key:
MDA-MB-231-Taxol-r = experiment: Cell cycle DNA content assay (flow cytometry); format: cell-based; conditions: Homo sapiens, 24 h, Breast, Paclitaxel-selected, read-out: EC50 @ 24 hours, ≧4N DNA content
Experimental: (§1) MDA-MB-231(F11)-luc parent and taxol-resistant cells were seeded at a density of 250,000 cells/well in a 12-well plate in 1 mL of in the appropriate media, in duplicates. The next day cells were treated with AMG 900 or taxol over a 10-point concentration range with a final DMSO concentration of 0.1% in taxol-free media. After 24 hours, cells were harvested with 1× trypsin-EDTA and transferred to PCR tubes. Cells were centrifuged at 2000 rpm for 4 minutes and the supernatant was aspirated. Cells were fixed in 200 μL of ice cold 90% methanol and stored at −20° C. for at least 24 hours. Fixed cells were centrifuged at 2000 rpm for 4 minutes to remove 90% methanol. Cells were washed with wash buffer and stained with 200 μL of propidium iodide (PI) for 30 minutes at 4° C. in the dark. An additional 400 μL of PI was added before data acquisition. Data was acquired and analyzed by flow cytometry (LSRII). A threshold gate was applied according to +4N (same as ≧4N) DNA content based on DMSO control and low/high drug-treated groups. The data was represented as percentage of control for +4N DNA content positive populations. The +4N DNA content cellular EC50 values were assigned using 4-parameter equation. […] Flow cytometric-based cell cycle analysis was performed to measure the percentage of ≧4N DNA content or SubG1 DNA content positive cells. The dose-response curves for AMG 900 represent the drug concentration plotted against the percentage of ≧4N DNA content positive cells. The dose-response curves for taxol represent the drug concentration plotted against the percentage of SubG1 DNA content positive cells. The EC50 values were calculated by 4-parameter fit model.

MDA-MB-231 = experiment: Cell cycle DNA content assay (flow cytometry); format: cell-based; conditions: Homo sapiens, 24 h; MDA-MB-231, Breast, Parent line; read-out: EC50 @ 24 hours, ≧4N DNA content
Experimental: as §1

[1] = system: multiple human cancer xenograft models; experiment: Xenograft panel, Example 3 (summary); format: in vivo, athymic nude mice; conditions: all xenograft models tested; oral 3.75, 7.5 or 15 mg/kg BID 2 consecutive days per week or 3 mg/kg BID everyday
Experimental: To investigate whether AMG 900-induced suppression of aurora kinase activity inhibits cell proliferation, the antiproliferative efficacy of AMG 900 was evaluated in-vivo in multiple human cancer xenograft models, including breast, colon, leukemia, lung, pancreatic, and uterine cancer models, grown in athymic nude mice. Mice were administered AMG 900 orally at 3.75, 7.5, or 15 mg/kg BID for 2 consecutive days per week or 3 mg/kg BID everyday for the duration of the study beginning when tumors were established. The reagents, solutions, equipment, formulation of AMG 900, tumor volume measurements and calculations were generally as described in Example 4 below.

HCT116 AZD1152-resistant = experiment: ≧4N DNA content assay (FIG. 6-A); format: cell-based; conditions: Homo sapiens, HCT-116; HCT116 AZD1152-resistant subline; 24 hours; read-out: cellular ≧4N DNA content EC50
Experimental: Tumor cell lines were obtained from the American Type Culture Collection (ATCC) unless otherwise specified. The MDA-MB-231-PTX and NCI-H460-PTX cell lines were established by growing the cells in the presence of increasing concentrations of paclitaxel over a period of 6 months. The HCT116 AZD1152-resistant cell line was established by growing the cells in the presence of AZD1152 at 80 nmol/L.
(§2) Tumor cells were treated with AMG 900, AZD1152, MK-0457, or PHA-739358 (range concentration varied based on potency) for 24 hours and processed for cell-cycle analysis (DNA staining only) as previously described (1). Cells were analyzed on a LSRII flow cytometer using BD FACS Diva software. The concentration-response curves and corresponding EC50 values were calculated using the percentage of cells with ≧4N DNA content versus the DMSO control.
HCT116 cell lines were treated with increasing concentrations of AMG 900 or AZD1152 for 24 hours. Flow cytometry was used to assess the accumulation of cells with ≧4N DNA content expressed as a percentage of the DMSO-treated control (POC). The concentration-response curves and calculated EC50 values were determined from two independent experiments (bars, ±SD).

U226-B1 = experiment: ≧4N DNA content assay (flow cytometry); format: cell-based, human; conditions: Homo sapiens; U226-B1, BCRP −; 24 hours
Experimental: as §2

RPMI8226 = experiment: ≧4N DNA content assay (flow cytometry); format: cell-based, human; conditions: Homo sapiens
Experimental: as §2

MDA-MB-231 parental = experiment: p-histone H3 fluorescence-based cell imaging assay; set-up: species or system human; conditions: Homo sapiens, P-gp −
Experimental: (§3) All high-content cell assays were performed on an ArrayScan VTi HCS Reader (Cellomics). Tumor cell lines were treated with AMG 900, AZD1152, MK-0457, or PHA-739358 (concentration range varied based on potency). The cells were prepared for intracellular staining with an anti-p-histone H3 Ser^10 antibody as previously described (1). Detection was performed with an anti-rabbit IgG-alexa-568 antibody and DAPI. The cellular levels of p-histone H3 were analyzed using Target Activation V2 algorithm (Cellomics) to determine the percentage of positive cells. For the imaging assays, the concentration-response curves and corresponding IC50 and EC50 values were calculated using the percentage of cells affected versus the DMSO control.

NCI-H460 parental = experiment: p-histone H3 fluorescence-based cell imaging assay; set-up: species or system human; conditions: Homo sapiens, P-gp −
Experimental: as §3

MES-SA parental = experiment: p-histone H3 fluorescence-based cell imaging assay; set-up: species or system human; conditions: Homo sapiens, P-gp −
Experimental: as §3

[2] = system: MDA-MB-231 PTX paclitaxel resistant; experiment: p-histone H3 fluorescence-based cell imaging assay; set-up: species or system human; conditions: Homo sapiens
Experimental: as §3

[3] = system: NCI-H460 PTX paclitaxel resistant; experiment: p-histone H3 fluorescence-based cell imaging assay; set-up: species or system human; conditions: Homo sapiens
Experimental: as §3

[4] = system: MES-SA-Dx5 doxorubicin resistant; experiment: p-histone H3 fluorescence-based cell imaging assay; set-up: species or system human; conditions: Homo sapiens
Experimental: as §3

- EC50 (MDA-MB-231-Taxol-r): 1 nM
- EC50 (MDA-MB-231): 1 nM
- EC50 (HCT116 AZD1152-resistant): 5 nM
- EC50 (U226-B1): 2 nM
- EC50 (RPMI8226; RPMI-8226, RPMI8226, BCRP +, 24 hours, read-out: ≧4N DNA Content assay, EC50 value): 3 nM
- EC50 (RPMI8226; RPMI-8226**, Multiple Myeloma, P-gp− and/or BCRP+, read-out: Cellular EC50): 3 nM
- EC50 ([2]; MDA-MB-231-PTX*, Breast, P-gp+, read-out: Cellular EC50): 3 nM
- IC50 ([2]; MDA-MB-231 PTX paclitaxel resistant, P-gp +): 3 nM
- EC50 ([3]; NCI-H460-PTX*, Lung, P-gp+, read-out: Cellular EC50): 3 nM
- IC50 ([3]; NCI-H460 PTX paclitaxel resistant, P-gp +): 3 nM
- EC50 ([4]; MES-SA Dx5*, Uterine, P-gp+, read-out: Cellular EC50): 2 nM
- IC50 ([4]; MES-SA-Dx5 doxorubicin resistant, P-gp +): 2 nM
SMILES: Cc1csc(-c2nnc(Nc3ccc(Oc4ncccc4-c4ccnc(N)n4)cc3)c3ccccc23)c1 [AMG 900, N-(4-((3-(2-amino-4-pyrimidinyl)-2-pyridinyl)oxy)phenyl)-4-(4-methyl-2-thienyl)-1-phthalazinamine]
- tumor growth vs vehicle control [1]: significantly inhibited tumor growth
- IC50 (MDA-MB-231 parental): 2 nM
- IC50 (NCI-H460 parental): 3 nM
- IC50 (MES-SA parental): 3 nM
